Measurements published in ChEMBL document CHEMBL1201862, “PubChem BioAssay data set” (2004).
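Method: 48-hour compound exposure of cells in 96-well plates, five concentrations, linear interpolation of endpoints. GI50 is the concentration that inhibits growth by half.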 Calls of active or inactive are those of the source. No stated cut-off is given here; in the data, active = GI50 up to about 1.1 µM and inactive = higher.

Key:
Test in all cases: NCI anticancer screen, dose series, 48 h
[1] = test system: MOLT-4
[2] = test system: Malme-3M
[3] = test system: A498
[4] = test system: EKVX
[5] = test system: PC-3
[6] = test system: NCI-H23
[7] = test system: SK-MEL-28
[8] = test system: OVCAR-4
[9] = test system: DU-145
[10] = test system: SK-OV-3
[11] = test system: SN12C
[12] = test system: KM12
[13] = test system: HCT-15
[14] = test system: OVCAR-3
[15] = test system: SK-MEL-5
[16] = test system: UO-31
[17] = test system: COLO 205
[18] = test system: SW-620
[19] = test system: OVCAR-8
[20] = test system: MCF7

Row | Compound | GI50 [1] | GI50 [2] | GI50 [3] | GI50 [4] | GI50 [5] | GI50 [6] | GI50 [7] | GI50 [8] | GI50 [9] | GI50 [10] | GI50 [11] | GI50 [12] | GI50 [13] [µM] | GI50 [14] | GI50 [15] | GI50 [16] | GI50 [17] | GI50 [18] | GI50 [19] | GI50 [20]
1 | CCOC(=O)/C(C(N)=O)=C(O)/C(O)=C/C(=O)c1ccc(Cl)cc1 | 20.1 µM (inactive) | 17.9 µM (inactive) | > 100 µM (inactive) | 25.9 µM (inactive) | 19.1 µM (inactive) | 18.3 µM (inactive) | 24.8 µM (inactive) | 34.4 µM (inactive) | 14.8 µM (inactive) | 20.6 µM (inactive) | 16.5 µM (inactive) | 17.3 µM (inactive) | 17.7 | 21.9 µM (inactive) | 19.9 µM (inactive) | 18.6 µM (inactive) | 17.8 µM (inactive) | 20.5 µM (inactive) | 17.7 µM (inactive) | 23.8 µM (inactive)
2 | C=CC(=O)N1C/C(=C\c2ccc([N+](=O)[O-])cc2)C(=O)/C(=C/c2ccc([N+](=O)[O-])cc2)C1 | 0.0791 µM (active) | 0.201 µM (active) | 0.28 µM (active) | 0.243 µM (active) | 0.0698 µM (active) | 0.256 µM (active) | 0.275 µM (active) | 0.233 µM (active) | 0.621 µM (active) | 1.52 µM (inactive) | 0.195 µM (active) | 0.175 µM (active) | 0.0253 | 0.132 µM (active) | 0.719 µM (active) | 0.147 µM (active) | 0.0483 µM (active) | 0.0304 µM (active) | < 0.0391 µM (active) | < 0.0243 µM (active)
3 | O=c1[nH]cc(/C=N\Nc2ccccc2)c(=O)[nH]1 |  | > 100 µM (inactive) | > 100 µM (inactive) | > 100 µM (inactive) | > 100 µM (inactive) | > 100 µM (inactive) | > 100 µM (inactive) | > 100 µM (inactive) | > 100 µM (inactive) | > 100 µM (inactive) | > 100 µM (inactive) | > 100 µM (inactive) | 36.3 | 21.8 µM (inactive) | 11.6 µM (inactive) | > 100 µM (inactive) | 66.2 µM (inactive) | > 100 µM (inactive) | > 100 µM (inactive) | > 100 µM (inactive)
4 | Cc1ccc(Nc2n[nH]c(NS(=O)(=O)c3cc(C)c(Cl)cc3S)n2)cc1 | > 100 µM (inactive) | > 100 µM (inactive) | > 100 µM (inactive) | > 100 µM (inactive) | > 100 µM (inactive) | > 100 µM (inactive) | > 100 µM (inactive) | > 100 µM (inactive) | > 100 µM (inactive) | > 100 µM (inactive) | > 100 µM (inactive) | > 100 µM (inactive) | > 100 | > 100 µM (inactive) | > 100 µM (inactive) | > 100 µM (inactive) | > 100 µM (inactive) | > 100 µM (inactive) | > 100 µM (inactive) | > 100 µM (inactive)
5 | CNC(=S)N/N=C1\C(=O)N(CN2CCOCC2)c2ccc([N+](=O)[O-])cc21 | 43.6 µM (inactive) | 16.1 µM (inactive) | 24.5 µM (inactive) | 15.6 µM (inactive) | 22.1 µM (inactive) | 17.7 µM (inactive) | 20.7 µM (inactive) | 14.8 µM (inactive) | 13.7 µM (inactive) | 16.8 µM (inactive) | 16.4 µM (inactive) | 22.8 µM (inactive) | 12.9 | 17.5 µM (inactive) | 32.5 µM (inactive) | 3.05 µM (inactive) | 26.9 µM (inactive) | 28.2 µM (inactive) |  | 20.4 µM (inactive)
6 | Nc1ccc(C(=O)Nn2c(-c3ccccc3)nc3ccccc3c2=O)cc1 | > 100 µM (inactive) | > 100 µM (inactive) | 32.3 µM (inactive) | > 100 µM (inactive) | > 100 µM (inactive) | > 100 µM (inactive) | > 100 µM (inactive) | > 100 µM (inactive) | > 100 µM (inactive) | > 100 µM (inactive) | > 100 µM (inactive) | > 100 µM (inactive) |  | > 100 µM (inactive) | > 100 µM (inactive) | > 100 µM (inactive) | > 100 µM (inactive) | > 100 µM (inactive) | > 100 µM (inactive) | > 100 µM (inactive)
7 | Clc1ccc(C2=C(c3ccccc3)C(c3ccc(Cl)cc3)N3C(=N[C@H]4CCCC[C@@H]43)N2)cc1 (stereo partly specified) | 4.46 µM (inactive) | 16.5 µM (inactive) | 17.3 µM (inactive) | 12.4 µM (inactive) | 10.2 µM (inactive) | 14.2 µM (inactive) | 13.7 µM (inactive) | 9.2 µM (inactive) | 13.2 µM (inactive) | 17.1 µM (inactive) |  | 9.4 µM (inactive) | 5.96 | 13.8 µM (inactive) | 12.3 µM (inactive) | 13.6 µM (inactive) | 6.64 µM (inactive) | 8.05 µM (inactive) | 13.7 µM (inactive) | 7.06 µM (inactive)
